Data from patent publication US9034846B2, “Use of cyclodextrin for treatment and prevention of bronchial inflammatory diseases” (UNIVERSITE DE LIEGE, priority 2004, dated 2015).

Legend:
[1] = system: IL-13; test: IL-13 ELISA in BAL and lung protein extracts, OVA mouse model; assay type: in vivo
Description: (§1) In order to study modulation of airway inflammation, males BALB/c mice of 6 to 8 weeks old were sensitized by intraperitoneal injection of 10 μg ovalbumin (OVA) (Sigma Aldrich, Schnelldorf, Germany) emulsified in aluminum hydroxyde (AlumInject; Perbio, Erembodegem, Belgium) on days 1 and 8. Mice were subsequently exposed to allergens by daily inhalation of an aerosol of OVA 1%, for 30 minutes, generated by ultrasonic nebulizer (Devilbiss 2000), from day 21 to 27. Mice were subjected to inhalation of β-CD, HP-β-CD HP 1, 7.5, 50 mM and HP-β-CD 50 mM 30 minutes before OVA inhalation. Mice were sacrificed performed on day 28 as previously reported by Cataldo and al in Am. J. Pathol 2002; 161(2):491-498.
The left lung was crushed using a Mikro-Dismembrator (Braun Biotech International, Gmbh Melsungen, Germany). For proteins extraction, the crushed lung tissue was incubated overnight at 4° C. in a solution containing 2M urea, 1M NaCl and 50 mM Tris (pH 7.5) and subsequently centrifuged 15 minutes at 16.000×g. The supernatant was stored at −80° C.
Eotaxin and IL-13 levels were assessed using commercial ELISAs (R&D systems, Abingdon, UK). Eotaxin was measured by incubation in a wheel coated with a primary antibody specifically dedicated to the recognition of the protein and after rinsing, a second antibody against eotaxin, coupled with horse radish peroxydase was used to quantify the amounts of eotaxin in the solution
IL-13 was measured by incubation in a wheel coated with a primary antibody specifically dedicated to the recognition of the protein and after rinsing, a second antibody against IL-13, coupled with horse radish peroxydase was used to quantify the amounts of […] in the solution.

[2] = system: OVA exposed mice; test: Peribronchial eosinophil infiltration (Congo Red), OVA mouse model; assay type: in vivo; settings: FIG. 3
Description: as §1
After BAL, the thorax was opened and the left main bronchus was clamped. The left lung was excised and frozen immediately at −80° C. for protein and mRNA extraction. The right lung was infused with 4 ml paraformaldehyde 4%, embedded in paraffin and used for histology. Sections of 5 μm thickness were cut off from paraffin and were stained with haematoxylin-eosin. The extent of peribronchial inflammation was estimated by a score calculated by quantification of peribronchial inflammatory cells, as previously described by Cataldo D D, Tournoy K G, Vermaelen K et al. in Am J Pathol 2002; 161(2):491-498. A value of 0 was adjudged when no inflammation was detectable, a value of 1 when there was occasionally inflammatory cells, a value of 2 when most bronchi were surrounded by a thin layer (1 to 5 cells) of inflammatory cells and a value of 3 when most bronchi were surrounded by a thick layer (>5 cells) of inflammatory cells. Since 5-7 randomly selected tissue sections per mouse were scored, inflammation scores are expressed as a mean value and can be compared between groups. After Congo Red staining, the eosinophilic infiltration in the airway walls was quantified by manual count and reported to the perimeter of epithelial basement membrane defining an eosinophilic inflammatory score.

[3] = system: OVA exposed mice; test: Bronchial responsiveness to methacholine (Penh, barometric plethysmograph); assay type: in vivo, mouse
Description: as §1, with “Mice were subjected to inhalation of β-CD, HP-β-CD HP 1, 7.5, 50 mM and HP-β-CD 50 mM 30 minutes before OVA inhalation.” left out
Twenty-four hours after the last allergen exposure, the bronchial hyper responsiveness was determined by measuring the Penh (Enhanced Pause) using a barometric plethysmograph (Emka technologies, Paris) as proposed by Hamelmann, E., et al., Am. J. Respir. Crit. Care Med. 156 (1997) 766-775). The Penh was measured at baseline and […] after the inhalation of increasing doses (25, 50, 75 and 100 mM) of methacholine (Mch).

[4] = system: CXCL-1; test: CXCL-1 ELISA in lung protein extracts, OVA-induced inflammation model; assay type: in vivo, mouse; settings: aerosolized 15 mM, vs placebo-exposed mice, FIG. 12
Description: In ovalbumin (OVA)-induced inflammation model, mice were immunized by intraperitoneal injection of OVA (10 μg) (Sigma Aldrich, Schnelldorf, Germany) and aluminium hydroxyde on days 0 and 7. From days 21 to 25, mice were exposed to inhalation of 1% OVA or PBS (phosphate buffer saline) for 30 minutes. Airway hyperresponsiveness was measured on day 26 before sacrifice. Mice were either exposed to aerosolized hydroxypropyl-beta-cyclodextrin (15 mM) or PBS for […] 6 hours before allergen exposure.
After sacrifice, thorax was opened and the right lungs were excised and snap frozen in liquid nitrogen for protein extraction. The left lung was insufflated at constant pressure with 4% paraformaldehyde and embedded in paraffin for further histological analysis. A peribronchial inflammation score was applied on each hematoxylin-eosin stained slide as previously reported (Cataldo et al Am J Pathol 2002). A value from 0 to 2 was adjudged to each bronchus. […] Six bronchi per mice were counted and statistical analysis was performed by using GraphPad Program. […] ELISA for CXCL-1 on lung protein extracts were assessed using antibodies from R&D Systems and the R&D Duoset® Elisa Development kit (R&D Systems, Minneapolis, Minn., USA).

Substance: hydroxypropyl-βcyclodextrin [HP-β-CD]
- levels of IL-13 in whole lung protein extracts ([1]; 50 mM, FIG. 11): significantly decreased
- IL-13 levels in BAL ([1]; FIG. 7b): decreased
- peribronchial eosinophil infiltration ([2]; 50 mM): decrease reached statistical significance
- peribronchial eosinophil infiltration ([2]; 1 and 7.5 mM): decrease reached statistical significance
- area under the methacholine dose-response curve (A.U.C) ([3]; 50 mM): significant decrease
- methacholine-induced Penh increase ([3]; 50 mM inhalation, FIG. 4): reduced
- Levels of CXCL-1 in lung protein extracts [4]: significantly decreased
